SMILES strings stand for the structures. Several values for one entry are separate records, joined by “and”; a condition that tells them apart may be missing. Identical values can stand only once. Inconclusive results and toxic doses are left out.

The assay has as its system BDF1 mice, P388 leukemia ip, median survival T/C. The assay is described as follows: NCI In Vivo Anticancer Drug Screen. Data for tumor model P388 Leukemia (intraperitoneal) in B6D2F1 (BDF1) mice. The note with it: endpoint: median survival time, higher = longer survival. The procedure, abridged: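 T/C = treated-group survival ÷ vehicle-control survival; tumour transplanted into mice before dosing.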

[1] abbreviates: dose: 100.0 mg/kg/injection, schedule: Q01DX009 (ip), vehicle: Klucel (hydroxypropylcellulose) (HPC).
Where [2] appears, read: dose: 100.0 mg/kg/injection, schedule: Q04DX003 (ip), vehicle: Klucel (hydroxypropylcellulose) (HPC).
Setting [3] is: dose: 100.0 mg/kg/injection, schedule: Q04DX003 (ip), vehicle: saline.
The mark [4] stands for this setting: dose: 100.0 mg/kg/injection, schedule: Q01DX009 (ip), vehicle: saline.
Where [5] appears, read: dose: 100.0 mg/kg/injection, schedule: Q04DX003 (ip), vehicle: saline with Tween-80.
[6] abbreviates: dose: 200.0 mg/kg/injection, schedule: Q04DX003 (ip), vehicle: saline with Tween-80.
[7] abbreviates: dose: 400.0 mg/kg/injection, schedule: Q04DX003 (ip), vehicle: saline with Tween-80.
The mark [8] stands for this setting: dose: 50.0 mg/kg/injection, schedule: Q01DX009 (ip), vehicle: saline with Tween-80.
The mark [9] stands for this setting: dose: 100.0 mg/kg/injection, schedule: Q01DX009 (ip), vehicle: saline with Tween-80.
The mark [10] stands for this setting: dose: 200.0 mg/kg/injection, schedule: Q01DX009 (ip), vehicle: saline with Tween-80.
The mark [11] stands for this setting: dose: 25.0 mg/kg/injection, schedule: Q01DX009 (ip), vehicle: saline with Tween-80.
Setting [12] is: dose: 400.0 mg/kg/injection, schedule: Q01DX009 (ip), vehicle: saline with Tween-80.
[13] abbreviates: dose: 25.0 mg/kg/injection, schedule: Q04DX003 (ip), vehicle: saline with Tween-80.

As to `O=NN(CCCl)C(=O)Nc1cccc(O)c1`, the T/C is 190 % of control (dose: 22.0 mg/kg/injection, schedule: Q04DX003 (ip), vehicle: Klucel (hydroxypropylcellulose) (HPC)); 215 % of control (dose: 25.0 mg/kg/injection, schedule: Q01DX009 (ip), vehicle: Klucel (hydroxypropylcellulose) (HPC)); 186 % of control (dose: 33.0 mg/kg/injection, schedule: Q04DX003 (ip), vehicle: Klucel (hydroxypropylcellulose) (HPC)); 100 % of control (dose: 35.0 mg/kg/injection, schedule: Q01DX009 (ip), vehicle: Klucel (hydroxypropylcellulose) (HPC)); 88 % of control and 215 % of control (dose: 50.0 mg/kg/injection, schedule: Q01DX009 (ip), vehicle: Klucel (hydroxypropylcellulose) (HPC)); 186 % of control (dose: 50.0 mg/kg/injection, schedule: Q04DX003 (ip), vehicle: Klucel (hydroxypropylcellulose) (HPC)). In addition, the T/C is, setting by setting: (dose: 66.0 mg/kg/injection, schedule: Q04DX003 (ip), vehicle: saline) 222 % of control; (dose: 75.0 mg/kg/injection, schedule: Q01DX009 (ip), vehicle: Klucel (hydroxypropylcellulose) (HPC)) 158 % of control; under setting [1], 105 % of control; under setting [2], 222 % of control; under setting [3], 272 % of control.

In the case of `O=C(O)C(Cc1ccc(O)cc1)c1ccccc1` (stereo not given), the T/C was 86 % of control under setting [1]; 90 % of control under setting [2]; 95 % of control (dose: 200.0 mg/kg/injection, schedule: Q01DX009 (ip), vehicle: Klucel (hydroxypropylcellulose) (HPC)); 90 % of control (dose: 200.0 mg/kg/injection, schedule: Q04DX003 (ip), vehicle: Klucel (hydroxypropylcellulose) (HPC)); 109 % of control (dose: 400.0 mg/kg/injection, schedule: Q01DX009 (ip), vehicle: Klucel (hydroxypropylcellulose) (HPC)); 95 % of control (dose: 400.0 mg/kg/injection, schedule: Q04DX003 (ip), vehicle: Klucel (hydroxypropylcellulose) (HPC)).

Consider `CC(C)N1c2c(nc(N)[nH]c2=O)NCC1CNc1ccc(C(=O)NC(CCC(=O)O)C(=O)O)cc1` (stereo not given), for which the T/C reads like this: under setting [4], 105 % of control; (dose: 150.0 mg/kg/injection, schedule: Q01DX009 (ip), vehicle: saline) 90 % of control; (dose: 200.0 mg/kg/injection, schedule: Q01DX009 (ip), vehicle: saline) 97 % of control; (dose: 300.0 mg/kg/injection, schedule: Q01DX009 (ip), vehicle: saline) 93 % of control; (dose: 400.0 mg/kg/injection, schedule: Q01DX009 (ip), vehicle: saline) 110 % of control.

Consider `Cc1c2c(nn1-c1ccccn1)C(=O)C=C(Nc1ccccc1)C2=O`, for which, for the setting “dose: 8.8 mg/kg/injection, schedule: Q01DX009 (ip), vehicle: carboxymethylcellulose (CMC)”, the T/C was 91 % of control.

Consider `COc1cccc(CC(=O)NCCc2ccc(OC)c(OC)c2)c1`, for which the T/C under setting [5] is 100 % of control, the T/C under setting [6] is 90 % of control and the T/C under setting [7] was 100 % of control.

`CN(C)c1ccc(C=Nc2ccc(/C=C\c3ccnc4ccccc34)cc2)cc1`: the T/C runs as follows: under setting [8], 107 % of control; under setting [9], 117 % of control; under setting [10], 100 % of control.

Consider `CC(=O)c1c(O)c(C)c(O)c2c1OC1=CC(=O)C(C(C)=O)C(=O)C12C` (stereo not given), for which the T/C runs as follows: (dose: 5.0 mg/kg/injection, schedule: Q01DX009 (ip), vehicle: gum acacia) 100 % of control and 103 % of control; (dose: 10.0 mg/kg/injection, schedule: Q01DX009 (ip), vehicle: gum acacia) 105 % of control and 108 % of control; (dose: 20.0 mg/kg/injection, schedule: Q01DX009 (ip), vehicle: gum acacia) 107 % of control; (dose: 35.0 mg/kg/injection, schedule: Q01DX010 (ip), vehicle: saline) 116 % of control; (dose: 40.0 mg/kg/injection, schedule: Q01DX009 (ip), vehicle: gum acacia) 96 % of control and 105 % of control; (dose: 53.0 mg/kg/injection, schedule: Q01DX010 (ip), vehicle: saline) 122 % of control. In addition, the T/C runs as follows: (dose: 79.0 mg/kg/injection, schedule: Q01DX010 (ip), vehicle: saline) 122 % of control; (dose: 80.0 mg/kg/injection, schedule: Q01DX009 (ip), vehicle: gum acacia) 103 % of control and 108 % of control.

On to `O=[N+]([O-])c1cc([N+](=O)[O-])c2ccccc2c1NS(=O)(=O)/C=C/c1ccccc1`, for which the T/C is 104 % of control under setting [11], 112 % of control under setting [8] and 111 % of control under setting [9].

In the case of `O=C(Nc1cc(C(F)(F)F)ccc1Cl)Nc1cc(C(F)(F)F)c(Cl)cc1S(=O)(=O)O`, the T/C reads like this: (dose: 50.0 mg/kg/injection, schedule: Q04DX003 (ip), vehicle: saline) 90 % of control; under setting [3], 109 % of control; (dose: 200.0 mg/kg/injection, schedule: Q04DX003 (ip), vehicle: saline) 122 % of control.

On to `O=C1NC(=S)S/C1=C\c1ccncc1`, for which the T/C is, setting by setting: under setting [8], 113 % of control; under setting [9], 106 % of control; under setting [10], 106 % of control; under setting [12], 106 % of control.

Consider `O=C1C=CC(=O)N1c1ccc([N+](=O)[O-])cc1`, for which the T/C is, setting by setting: (dose: 5.25 mg/kg/injection, schedule: Q01DX009 (ip), vehicle: Klucel (hydroxypropylcellulose) (HPC)) 90 % of control; (dose: 7.5 mg/kg/injection, schedule: Q04DX003 (ip), vehicle: Klucel (hydroxypropylcellulose) (HPC)) 116 % of control; (dose: 10.5 mg/kg/injection, schedule: Q01DX009 (ip), vehicle: Klucel (hydroxypropylcellulose) (HPC)) 90 % of control; (dose: 15.0 mg/kg/injection, schedule: Q04DX003 (ip), vehicle: Klucel (hydroxypropylcellulose) (HPC)) 95 % of control.

As for `Cc1cc(NC(=O)Nc2ccc(C3=NCCN3)cc2)ccc1NC(=O)Nc1ccc(C2=NCCN2)cc1`, the T/C is, setting by setting: under setting [9], 122 % of control; under setting [12], 159 % of control.

`O=C(/C=C/c1ccc(OCc2ccccc2)cc1)c1cccc(F)c1`: the T/C runs as follows: under setting [8], 100 % of control; under setting [9], 100 % of control; under setting [10], 92 % of control.

As to `CN(CCCl)Cc1ccccc1`, the T/C reads like this: (dose: 0.04 mg/kg/injection, schedule: Q01DX009 (ip), vehicle: saline) 95 % of control; (dose: 0.07 mg/kg/injection, schedule: Q01DX009 (ip), vehicle: saline) 87 % of control; (dose: 22.0 mg/kg/injection, schedule: Q04DX003 (ip), vehicle: saline) 104 % of control; (dose: 25.0 mg/kg/injection, schedule: Q04DX003 (ip), vehicle: saline) 109 % of control; (dose: 33.0 mg/kg/injection, schedule: Q01DX009 (ip), vehicle: saline sonified) 116 % of control; (dose: 35.0 mg/kg/injection, schedule: Q04DX003 (ip), vehicle: saline) 109 % of control. For the same compound, the T/C by setting is: (dose: 50.0 mg/kg/injection, schedule: Q01DX009 (ip), vehicle: saline sonified) 120 % of control; (dose: 50.0 mg/kg/injection, schedule: Q01DX009 (ip), vehicle: saline) 210 % of control; (dose: 75.0 mg/kg/injection, schedule: Q01DX009 (ip), vehicle: saline sonified) 195 % of control; under setting [4], 155 % of control; (dose: 150.0 mg/kg/injection, schedule: Q04DX003 (ip), vehicle: saline) 175 % of control.

`CC(=O)NCc1ccc([N+](=O)[O-])cc1`: the T/C is 103 % of control under setting [11]; 111 % of control under setting [13]; 103 % of control under setting [8]; 115 % of control (dose: 50.0 mg/kg/injection, schedule: Q04DX003 (ip), vehicle: saline with Tween-80); 100 % of control under setting [9]; 111 % of control under setting [5]. Moreover, the T/C is 119 % of control under setting [10], 109 % of control under setting [6], 95 % of control under setting [12] and 118 % of control under setting [7].

Consider `CC(C)(C)c1cc2c3c(c1)C(C)(C)OS3(C)OC2(C)C`, for which the T/C was 102 % of control (dose: 6.25 mg/kg/injection, schedule: Q04DX003 (ip), vehicle: saline with Tween-80); 100 % of control (dose: 12.5 mg/kg/injection, schedule: Q04DX003 (ip), vehicle: saline with Tween-80); 92 % of control under setting [13].

Regarding `Cc1ccc(NC(=O)Oc2ccc(Br)cc2Br)c([N+](=O)[O-])c1`, the T/C under setting [9] was 122 % of control.

For `O=C(O)c1cc(Br)ccc1OCc1cccc(Cl)c1`, the T/C under setting [5] is 99 % of control.

Turning to `CCOC(=O)/C(C#N)=C/c1cc2c3c(c1)CCCN3CCC2`, the T/C by setting is: under setting [5], 90 % of control; under setting [6], 90 % of control; under setting [7], 86 % of control.

The values are drawn from PubChem BioAssay AID328 (DTP/NCI, 2004).
